In ChEMBL document CHEMBL5137094, “Construction of Covalent Bisubstrate Inhibitor of Protein Kinase Reacting with Cysteine Residue at Substrate-Binding Site” (J Med Chem, 2022):
Calls of active or inactive are those of the source. The rule behind the calls is not given here.

Tests used:
[1] = Drug uptake in human HeLa cell lysates assessed as drug penetration by measuring increase in fluorescence intensity at 1.5 uM incubated for 2 hrs by PKAc antibody immunostaining based Western blot analysis; assay type: ADME, subcellular
[2] = Drug uptake in live human HeLa cells assessed as drug penetration by measuring increase in fluorescence intensity at 5 uM incubated for 2 hrs by PKAc antibody immunostaining based Western blot analysis; assay type: ADME, cell-based
[3] = target: T1, cAMP-dependent protein kinase catalytic subunit alpha (Homo sapiens, UniProt P17612); assay: Binding affinity to recombinant human spiked PKAC-alpha in human HeLa cells assessed as covalent compound-protein adduct formation by measuring multiple fluorescent band formation at 0.15 to 1 uM incubated for 1 hr by 5-TAMRA dye based Western blot analysis; assay type: cell-based; details: dose 0.15-1 µM
[4] = target: T1, cAMP-dependent protein kinase catalytic subunit alpha; assay: Binding affinity to recombinant human PKAC-alpha in human HeLa cells assessed as increase in intensity of fluorescent labeled bands at 5 uM incubated for 2 hrs in presence of forskolin by Western blot analysis; assay type: cell-based
[5] = Drug uptake in live human HeLa cells assessed as increase in fluorescence intensity at 1 to 5 uM by microplate reader analysis; assay type: ADME, cell-based; details: TDE = time-dependent effect, dose lower 1 µM, time lower 15 min, dose upper 5 µM, time upper 120 min
[6] = Drug uptake in cytoplasm of human HeLa cells at 1 to 5 uM incubated for 15 mins to 2 hrs in presence of forskolin by live cell imaging analysis; assay type: ADME, subcellular; details: dose lower 1 µM, time lower 15 min, dose upper 5 µM, time upper 120 min
[7] = Drug uptake in cell membrane of human HeLa cells assessed as observation of cell plasma membrane protrusions at 1 to 5 uM incubated for 15 mins to 2 hrs in presence of forskolin by live cell imaging analysis; assay type: ADME, cell membranes; details: dose lower 1 µM, time lower 15 min, dose upper 5 µM, time upper 120 min
[8] = Drug uptake in live human HeLa cells assessed as drug internalization at 5 uM incubated for 15 mins to 2 hrs in presence of forskolin by live cell imaging analysis; assay type: ADME, cell-based; details: time 15-120 min
[9] = Drug uptake in cytoplasm of human HeLa cells at 1 to 5 uM incubated for 15 mins to 2 hrs by live cell imaging analysis; assay type: ADME, subcellular; details: dose lower 1 µM, time lower 15 min, dose upper 5 µM, time upper 120 min
[10] = Drug uptake in live human HeLa cells assessed as drug internalization at 5 uM incubated for 15 mins to 2 hrs in absence of forskolin by live cell imaging analysis; assay type: ADME, cell-based; details: time 15-120 min
[11] = Drug uptake in endosome of human HeLa cells assessed as punctate perinuclear pattern formation at 1 to 5 uM incubated for 15 mins to 2 hrs by live cell imaging analysis; assay type: ADME, subcellular; details: dose lower 1 µM, time lower 15 min, dose upper 5 µM, time upper 120 min
[12] = Drug uptake in endosome of human HeLa cells assessed as punctate perinuclear pattern formation at 1 to 5 uM incubated for 15 mins to 2 hrs in presence of forskolin by live cell imaging analysis; assay type: ADME, subcellular; details: dose lower 1 µM, time lower 15 min, dose upper 5 µM, time upper 120 min
[13] = Drug uptake in cell membrane of human HeLa cells assessed as observation of cell plasma membrane protrusions at 1 to 5 uM incubated for 15 mins to 2 hrs by live cell imaging analysis; assay type: ADME, cell membranes; details: dose lower 1 µM, time lower 15 min, dose upper 5 µM, time upper 120 min

| Structure (SMILES) | Drug uptake [1] | Drug uptake [2] | Activity [3] | Activity [4] | Drug uptake [5] | Drug uptake [6] | Drug uptake [7] | Drug uptake [8] | Drug uptake [9] | Drug uptake [10] | Drug uptake [11] | Drug uptake [12] | Drug uptake [13] |
| --- | --- | --- | --- | --- | --- | --- | --- | --- | --- | --- | --- | --- | --- |
| CC[C@H](C)[C@H](NC(=O)CCC(=O)N[C@@H](CCCCNC(=O)[C@@H](CCCNC(=N)N)NC(=O)CCCCCCCC(=O)N1CCN(c2ncnc3[nH]ccc23)CC1)C(=O)N[C@H](CCCNC(=N)N)C(=O)N[C@H](CCCNC(=N)N)C(=O)N[C@H](CCCCNC(=O)CCCCC[N+]1=C(/C=C/C=C/C=C2\N(C)c3ccc4ccccc4c3C2(C)C)C(C)(C)c2c1ccc1ccccc21)C(N)=O)C(=O)NCC(=O)CF | Active | Active | Active | Active |  |  |  |  |  |  |  |  |  |
| CC[C@H](C)[C@H](NC(=O)CCC(=O)N[C@@H](CCCCNC(=O)[C@@H](CCCNC(=N)N)NC(=O)CCCCCCCC(=O)N1CCN(c2ncnc3[nH]ccc23)CC1)C(=O)N[C@H](CCCNC(=N)N)C(=O)N[C@H](CCCNC(=N)N)C(=O)N[C@H](CCCCNC(=O)CCCCC[N+]1=C(/C=C/C=C/C=C2\N(C)c3ccccc3C2(C)C)C(C)(C)c2ccccc21)C(N)=O)C(=O)NCC(=O)CF |  |  |  |  | Tde | Active | Active | Active | Active | Active | Active | Active | Active |
